From the supplement of paper PMC11061612

Legend:
Assay in all cases: combination Emax (second highest fraction inhibited in the dose matrix, 72 h); higher = more inhibition; extreme values may be limits of the assay
[1] = test system: HT-3 (Cervical Carcinoma)
Procedure, shortened: (§1)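 Cell lines in DMEM/F12 or RPMI with 10% FBS were plated in 1536-well plates, held 24 hours at 37°C, 5% CO2, then given two-drug dose matrices for 72 hours (DMSO typically 0.2%). Viability was read by CellTiter-Glo 2.0 luminescence and scaled as inhibition from 0 (vehicle wells) to 1 (blank wells). Combination Emax is the second-highest inhibition in the matrix; Bliss excess is observed combination effect minus expected EA + EB − EA·EB, EA and EB being single-agent effects.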

[2] = test system: MG-63 (Osteosarcoma)
Procedure, shortened: as §1

[3] = test system: OVKATE (Ovarian Carcinoma)
Procedure, shortened: as §1

[4] = test system: JURL-MK1 (Chronic Myelogenous Leukemia)
Procedure, shortened: as §1

[5] = test system: SK-MEL-24 (Melanoma)
Procedure, shortened: as §1

[6] = test system: BC-1 (B-Cell Non-Hodgkin's Lymphoma)
Procedure, shortened: as §1

[7] = test system: SBC-5 (Small Cell Lung Carcinoma)
Procedure, shortened: as §1

[8] = test system: RS4-11 (B-Lymphoblastic Leukemia)
Procedure, shortened: as §1

[9] = test system: SBC-3 (Small Cell Lung Carcinoma)
Procedure, shortened: as §1

[10] = test system: C2BBe1 (Colorectal Carcinoma)
Procedure, shortened: as §1

[11] = test system: COR-L105 (Lung Adenocarcinoma)
Procedure, shortened: as §1

[12] = test system: NCI-H1435 (Non-Small Cell Lung Carcinoma)
Procedure, shortened: as §1

[13] = test system: IGROV-1 (Ovarian Carcinoma)
Procedure, shortened: as §1

[14] = test system: CAL-85-1 (Breast Carcinoma)
Procedure, shortened: as §1

[15] = test system: SW1463 (Colorectal Carcinoma)
Procedure, shortened: as §1

[16] = test system: NCI-H2452 (Mesothelioma)
Procedure, shortened: as §1

[17] = test system: MRK-nu-1 (Breast Carcinoma)
Procedure, shortened: as §1

[18] = test system: SUP-HD1 (Hodgkin's Lymphoma)
Procedure, shortened: as §1

[19] = test system: NTERA-2-cl-D1 (Other Solid Carcinomas)
Procedure, shortened: as §1

SMILES	combination Emax [1]	combination Emax [2]	combination Emax [3]	combination Emax [4]	combination Emax [5]	combination Emax [6]	combination Emax [7]	combination Emax [8]	combination Emax [9]	combination Emax [10]	combination Emax [11]	combination Emax [12]	combination Emax [13]	combination Emax [14]	combination Emax [15]	combination Emax [16]	combination Emax [17]	combination Emax [18]	combination Emax [19]
CN(CCO)CC[C@H](CSc1ccccc1)Nc1ccc(S(=O)(=O)NC(=O)c2ccc(N3CCC([C@@H](O)c4ccccc4-c4ccc(Cl)cc4)CC3)cc2)cc1S(=O)(=O)C(F)(F)F [AZD4320] + Cn1cnc2c(F)c(Nc3ccc(Br)cc3Cl)c(C(=O)NOCCO)cc21 [Selumetinib] (first compound max 1 µM, 7x7, partner max 3 µM)	0.257	0.365	0.501	0.999	0.761	0.443	0.245	1	0.981	0.587	0.543	0.819	0.612	0.683	0.534	0.346	0.562	0.983	0.987
CC1(C)CCC(CN2CCN(c3ccc(C(=O)NS(=O)(=O)c4ccc(NCC5CCOCC5)c([N+](=O)[O-])c4)c(Oc4cnc5[nH]ccc5c4)c3)CC2)=C(c2ccc(Cl)cc2)C1 [Venetoclax] + Cc1cc2ncnn2cc1Nc1ncc2c(n1)n(C1CCOCC1)c(=O)n2C [AZD7648] (first compound max 1 µM, 7x7, partner max 10 µM)	0.135	0.201	0.28	0.356	0.248	0.516	0.212	1	0.543	0.278	0.274	0.165	0.539	0.284	0.0854	0.259	0.523	0.795	0.743
CC1(C)CCC(CN2CCN(c3ccc(C(=O)NS(=O)(=O)c4ccc(NCC5CCOCC5)c([N+](=O)[O-])c4)c(Oc4cnc5[nH]ccc5c4)c3)CC2)=C(c2ccc(Cl)cc2)C1 [Venetoclax] + CCN(CCO)CCCOc1ccc2c(Nc3cc(CC(=O)Nc4cccc(F)c4)[nH]n3)ncnc2c1 [AZD2811] (first compound max 1 µM, 7x7, partner max 1 µM)	0.178	0.23	0.153	0.445	0.248	0.674	0.266	1	0.766	0.214	0.211	0.161	0.255	0.156	0.157	0.259	0.612	0.922	0.831
CN(C)CCCOc1ccc(-c2ccc3ncc4c(c3c2)n(C2CCOCC2)c(=O)n4C)cn1 [AZD0156] + C=CCn1c(=O)c2cnc(Nc3ccc(N4CCN(C)CC4)cc3)nc2n1-c1cccc(C(C)(C)O)n1 [AZD1775] (first compound max 1 µM, partner max 1 µM)	0.331	0.526	0.336	0.989	0.443	0.999	0.423	0.881	0.442	0.209	0.418	0.193	0.769	0.363	0.422	0.589	0.246	0.836	0.376
C[C@@H]1COCCN1c1cc(C2([S@](C)(=N)=O)CC2)nc(-c2ccnc3[nH]ccc23)n1 [AZD6738] + O=C(c1cc(Cc2n[nH]c(=O)c3ccccc23)ccc1F)N1CCN(C(=O)C2CC2)CC1 [Olaparib] (first compound max 10 µM, 7x7, partner max 10 µM)	0.697	0.674	0.305	0.996	0.551	0.939	0.789	0.979	0.699	0.331	0.581	0.212	0.704	–	0.951	0.469	0.621	0.725	0.894
CC(=O)c1c(C)c2cnc(Nc3ccc(N4CCNCC4)cn3)nc2n(C2CCCC2)c1=O [Palbociclib] + CN(CC[C@H](CSC1=CC=CC=C1)NC2=C(C=C(C=C2)S(=O)(=O)NC(=O)C3=CC=C(C=C3)N4CCC(CC4)[C@H](C5=CC=CC=C5C6=CC=C(C=C6)Cl)O)S(=O)(=O)C(F)(F)F)CCO [AZD4320] (first compound max 10 µM, 7x7, partner max 1 µM)	0.0805	–	–	1	–	–	0.251	1	–	0.318	–	–	0.793	–	–	–	–	0.946	–
COc1nnc2ccc(N3CCC(c4ccc(OCCN5CCN(C)C(=O)[C@H]5C)cc4)CC3)nn12 [AZD5153] + CN(CC[C@H](CSC1=CC=CC=C1)NC2=C(C=C(C=C2)S(=O)(=O)NC(=O)C3=CC=C(C=C3)N4CCC(CC4)[C@H](C5=CC=CC=C5C6=CC=C(C=C6)Cl)O)S(=O)(=O)C(F)(F)F)CCO [AZD4320] (first compound max 1 µM, 7x7, partner max 1 µM)	0.3	–	–	0.994	–	–	0.534	1	–	0.611	–	–	0.608	–	–	–	–	0.988	–
